Results: patent US20170121322A1, “BET-PROTEIN INHIBITING 3,4-DIHYDROPYRIDO[2,3-B]PYRAZINONES WITH META-SUBSTITUTED AROMATIC AMINO- OR ETHER GROUPS” (Bayer Pharma Aktiengesellschaft, priority 2014, published 2017)

Target: T1, BRD4 bromo domain 1 [BRD4(1)] (Homo sapiens, UniProt O60885)
T1 construct: N-terminally His6-tagged BRD4(1) (amino acids 67-152); made in house; host or cells: E. coli
Experiment: BRD4(1)/acetylated peptide H4 TR-FRET binding assay
Conditions: His6-BRD4(1) (aa 67-152) vs acetylated histone H4 peptide
Excerpt: To assess the BRD4(1) binding strength of the substances described in this application, the ability thereof to inhibit the interaction between BRD4(1) and acetylated histone H4 in a dose-dependent manner was quantified.
For this purpose, a time-resolved fluorescence resonance energy transfer (TR-FRET) assay was used, which measures the binding between N-terminally His6-tagged BRD4(1) (amino acids 67-152) and a synthetic acetylated histone H4 (Ac-H4) peptide with sequence GRGK(Ac)GGK(Ac)GLGK(Ac)GGAK(Ac)RHGSGSK-biotin. The recombinant BRD4(1) protein produced in-house according to Filippakopoulos et al., Cell, 2012, 149:214-231 was expressed in E. coli and purified by means of (Ni-NTA) affinity and (Sephadex G-75) size exclusion chromatography. The Ac-H4 peptide can be purchased, for example, from Biosyntan (Berlin, Germany).
In the assay, typically 11 different concentrations of each substance (0.1 nM, 0.33 nM, 1.1 nM, 3.8 nM, 13 nM, 44 nM, 0.15 μM, 0.51 μM, 1.7 μM, 5.9 μM and 20 μM) were analysed as duplicates on the same microtitre plate. For this purpose, 100-fold concentrated solutions in DMSO were prepared by serial dilutions (1:3.4) of a 2 mM stock solution into a clear, 384-well microtitre plate (Greiner Bio-One, Frickenhausen, Germany). From this, 50 nl were transferred into a black test plate (Greiner Bio-One, Frickenhausen, Germany). The test was started by the addition of 2 μl of a 2.5-fold concentrated BRD4(1) solution (final concentration typically 10 nM in the 5 μl of reaction volume) in aqueous assay buffer [50 mM HEPES pH 7.5, 50 mM sodium chloride (NaCl), 0.25 mM CHAPS and 0.05% serum albumin (BSA)] to the substances in the test plate. This was followed by a 10-minute incubation step at 22° C. for the pre-equilibration of putative complexes between BRD4(1) and the substances. Subsequently, 3 μl of a solution of 1.67 times the concentration (in assay buffer) consisting of Ac-H4 peptide (83.5 nM) and TR-FRET detection reagents [16.7 nM anti-6His-XL665 and 3.34 nM streptavidin cryptate (both from Cisbio Bioassays, Codolet, France), and 668 mM potassium fluoride (KF)] were added.
The mixture was then incubated in the dark at 22° C. for one hour and then at 4° C. for at least 3 hours and for no longer than overnight. The formation of BRD4(1)/Ac-H4 complexes was determined by the measurement of the resonance energy transfer from the streptavidin-Eu cryptate to the anti-6His-XL665 antibody present in the reaction. For this purpose, the fluorescence emission was measured at 620 nm and 665 nm after excitation at 330-350 nm in a TR-FRET measuring instrument, for example a Rubystar or Pherastar (both from BMG Lab Technologies, Offenburg, Germany) or a Viewlux (Perkin-Elmer). The ratio of the emissions at 665 nm and at 622 nm was taken as an indicator of the amount of BRD4(1)/Ac-H4 complexes formed.
The data (ratios) obtained were normalized, with 0% inhibition corresponding to the mean from the measurements for a set of controls (typically 32 data points) in which all the reagents were present. In these, in place of test substances, 50 nl of DMSO (100%) were used. Inhibition of 100% corresponded to the mean from the measurements for a set of controls (typically 32 data points) in which all the reagents except BRD4(1) were present. The IC50 was determined by regression analysis based on a 4-parameter equation (minimum, maximum, IC50, Hill; Y=Max+(Min−Max)/(1+(X/IC50)Hill).

| Compound | IC50 [nM] |
| --- | --- |
| COc1ccc(S(=O)(=O)C(C)C)cc1Nc1ccc2c(n1)N(C1CCNCC1)[C@H](C)C(=O)N2C [Example 26, (3R)-6-{[5-(Isopropylsulphonyl)-2-methoxyphenyl]amino}-1,3-dimethyl-4-(piperidin-4-yl)-3,4-dihydropyrido[2,3-b]pyrazin-2(1H)-one] | 19 |
| COc1ccc(S(C)(=O)=O)cc1Nc1ccc2c(n1)N(C1CCNCC1)[C@H](C)C(=O)N2C [Example 27, (3R)-6-{[2-Methoxy-5-(methylsulphonyl)phenyl]amino}-1,3-dimethyl-4-(piperidin-4-yl)-3,4-dihydropyrido[2,3-b]pyrazin-2(1H)-one] | 54 |
| COc1ccc(S(=O)(=O)C(C)C)cc1Nc1ccc2c(n1)N(C1CCN(CC(F)(F)F)CC1)[C@H](C)C(=O)N2C [Example 28, (3R)-6-{[5-(Isopropylsulphonyl)-2-methoxyphenyl]amino}-1,3-dimethyl-4-[1-(2,2,2-trifluoroethyl)piperidin-4-yl]-3,4-dihydropyrido[2,3-b]pyrazin-2(1H)-one] | 24 |
| COc1ccc(S(=O)(=O)C(C)C)cc1Nc1ccc2c(n1)N(C1CCN(CC(F)F)CC1)[C@H](C)C(=O)N2C [Example 29, (3R)-4-[1-(2,2-Difluoroethyl)piperidin-4-yl]-6-{[5-(isopropylsulphonyl)-2-methoxyphenyl]amino}-1,3-dimethyl-3,4-dihydropyrido[2,3-b]pyrazin-2(1H)-one] | 24 |
| COc1ccc(S(=O)(=O)C(C)C)cc1Nc1ccc2c(n1)N(C1CCN(CCC(F)(F)F)CC1)[C@H](C)C(=O)N2C [Example 31, (3R)-6-{[5-(Isopropylsulphonyl)-2-methoxyphenyl]amino}-1,3-dimethyl-4-[1-(3,3,3-trifluoropropyl)piperidin-4-yl]-3,4-dihydropyrido[2,3-b]pyrazin-2(1H)-one] | 23 |

Results, then the molecule that gave them:

| IC50 [nM] | Compound |
| --- | --- |
| 22 | COc1ccc(S(=O)(=O)C2CCOCC2)cc1Nc1ccc2c(n1)N(C1CCOCC1)[C@H](C)C(=O)N2C [Example 34, (3R)-6-{[2-Methoxy-5-(tetrahydro-2H-pyran-4-ylsulphonyl)phenyl]amino}-1,3-dimethyl-4-(tetrahydro-2H-pyran-4-yl)-3,4-dihydropyrido[2,3-b]pyrazin-2(1H)-one] |
| 32 | COc1ccc(S(=O)(=O)C2CCC2)cc1Nc1ccc2c(n1)N(C1CCOCC1)[C@H](C)C(=O)N2C [Example 35, (3R)-6-{[5-(Cyclobutylsulphonyl)-2-methoxyphenyl]amino}-1,3-dimethyl-4-(tetrahydro-2H-pyran-4-yl)-3,4-dihydropyrido[2,3-b]pyrazin-2(1H)-one] |
| 45 | CC(C)S(=O)(=O)c1ccc(OC(F)(F)F)c(Nc2ccc3c(n2)N(C2CCOCC2)[C@H](C)C(=O)N3C)c1 [Example 38, (3R)-6-{[5-(Isopropylsulphonyl)-2-(trifluoromethoxy)phenyl]amino}-1,3-dimethyl-4-(tetrahydro-2H-pyran-4-yl)-3,4-dihydropyrido[2,3-b]pyrazin-2(1H)-one] |
| 46 | COc1ccc(S(=O)(=O)C(F)(F)F)cc1Nc1ccc2c(n1)N(C1CCOCC1)[C@H](C)C(=O)N2C [Example 39, (3R)-6-({2-Methoxy-5-[(trifluoromethyl)sulphonyl]phenyl}amino)-1,3-dimethyl-4-(tetrahydro-2H-pyran-4-yl)-3,4-dihydropyrido[2,3-b]pyrazin-2(1H)-one] |
| 63 | COc1cc(Nc2ccc3c(n2)N(C2CCOCC2)[C@H](C)C(=O)N3C)cc(S(C)(=O)=O)c1 [Example 40, (3R)-6-{[3-Methoxy-5-(methylsulphonyl)phenyl]amino}-1,3-dimethyl-4-(tetrahydro-2H-pyran-4-yl)-3,4-dihydropyrido[2,3-b]pyrazin-2(1H)-one] |
| 228 | Cc1cc(Nc2ccc3c(n2)N(C2CCOCC2)[C@H](C)C(=O)N3C)ccn1 [Example 42, (3R)-1,3-Dimethyl-6-[(2-methylpyridin-4-yl)amino]-4-(tetrahydro-2H-pyran-4-yl)-3,4-dihydropyrido[2,3-b]pyrazin-2(1H)-one] |
| 321 | C[C@@H]1C(=O)N(C)c2ccc(Nc3cccc(C(F)(F)F)c3)nc2N1C1CCOCC1 [Example 43, (3R)-1,3-Dimethyl-4-(tetrahydro-2H-pyran-4-yl)-6-{[3-(trifluoromethyl)phenyl]amino}-3,4-dihydropyrido[2,3-b]pyrazin-2(1H)-one] |
